Legend:
Lucena 1 cells = assay: Multidrug resistance reversal assay (MTT) with DOX; type: cell-based, human
Method: (§1) Briefly, 5 × 10^4 Lucena 1 cells per well were seeded in 96-well plates containing RPMI-1640 medium in the presence of DOX alone or in combination with the tested compounds dissolved in ethanol or acetonitrile as appropriate. DOX was added to reach final concentrations of 0.05–431 μM. The compounds were assayed at the highest non-toxic concentration observed in both cell lines (cytotoxicity ≤ 20%, Cytotoxicity (%) = [1-(Optical density treatment-Optical density DMSO)/(Optical density control-Optical density DMSO)] x 100, determined by MTT proliferation assay (Joray et al., [2015]); maximum concentration tested 40 μg mL^−1). Following the primary screening, compounds 14 and 16 (dissolved in ethanol) were tested at serial dilutions. […] Subsequently, the supernatants were removed and replaced with 100 μL DMSO to solubilize the resulting purple formazan crystals produced from metabolically viable cells. Absorbance was measured with an iMark micro-plate reader (Bio-Rad, USA) at 595 nm.
(§2) The same reversal assay was performed in K562 cells, in order to discard a decrease in the IC50 of DOX due to effects other than P-gp inhibition. The reversal fold (RF) values for the tested compounds, which indicate their capacity to reduce resistance to DOX, were calculated by dividing the IC50 of DOX alone by the IC50 of DOX in the presence of the tested compounds (Xu et al., [2014]).

K562 cells [1] = assay: Multidrug resistance reversal assay (MTT) with DOX, sensitive parental line; type: cell-based, human; conditions: compound at 14 μM
Method: as §1, §2

K562 cells [2] = assay: Doxorubicin intracellular accumulation assay (flow cytometry), K562; type: cell-based, human; conditions: up to the maximum concentration evaluated
Source text: […]. […] Viability controls were included in all the experiments.

[3] = Cytotoxicity on peripheral blood mononuclear cells (MTT); type: cell-based, human; conditions: human, peripheral blood mononuclear cells (PBMC), PHA 10 μg mL−1, confidence limits in brackets
Method: (§3) The cytotoxicity of 14 and 16 on peripheral blood mononuclear cells (PBMC) was evaluated by MTT assay (Joray et al., [2015]). PBMC were collected from fresh heparinized blood and separated by density gradient centrifugation (Ficoll®) as described by Rennó et al. ([2008]). As the current study required samples from healthy human volunteer donors, ethical approval was provided by the Catholic University of Córdoba Research Ethics Board. Signed informed consents were obtained from donors. […] Absorbance (Abs) and percentage of cytotoxicity were determined as described above and the IC50 values were calculated. The experiment was carried out in two separate stages.

[4] = tested on: peripheral blood mononuclear cells (PBMC); assay: as above; type: cell-based, human; conditions: PHA 10 μg mL−1, 48 h, confidence limits in brackets
Method: as §3

P-gp [5] = molecular target: T1, P-gp (Homo sapiens, UniProt P08183); conditions: Lucena 1; 1 h pre-incubation, 5 μM DOX 1 h
T1 sequence (P08183 whole entry): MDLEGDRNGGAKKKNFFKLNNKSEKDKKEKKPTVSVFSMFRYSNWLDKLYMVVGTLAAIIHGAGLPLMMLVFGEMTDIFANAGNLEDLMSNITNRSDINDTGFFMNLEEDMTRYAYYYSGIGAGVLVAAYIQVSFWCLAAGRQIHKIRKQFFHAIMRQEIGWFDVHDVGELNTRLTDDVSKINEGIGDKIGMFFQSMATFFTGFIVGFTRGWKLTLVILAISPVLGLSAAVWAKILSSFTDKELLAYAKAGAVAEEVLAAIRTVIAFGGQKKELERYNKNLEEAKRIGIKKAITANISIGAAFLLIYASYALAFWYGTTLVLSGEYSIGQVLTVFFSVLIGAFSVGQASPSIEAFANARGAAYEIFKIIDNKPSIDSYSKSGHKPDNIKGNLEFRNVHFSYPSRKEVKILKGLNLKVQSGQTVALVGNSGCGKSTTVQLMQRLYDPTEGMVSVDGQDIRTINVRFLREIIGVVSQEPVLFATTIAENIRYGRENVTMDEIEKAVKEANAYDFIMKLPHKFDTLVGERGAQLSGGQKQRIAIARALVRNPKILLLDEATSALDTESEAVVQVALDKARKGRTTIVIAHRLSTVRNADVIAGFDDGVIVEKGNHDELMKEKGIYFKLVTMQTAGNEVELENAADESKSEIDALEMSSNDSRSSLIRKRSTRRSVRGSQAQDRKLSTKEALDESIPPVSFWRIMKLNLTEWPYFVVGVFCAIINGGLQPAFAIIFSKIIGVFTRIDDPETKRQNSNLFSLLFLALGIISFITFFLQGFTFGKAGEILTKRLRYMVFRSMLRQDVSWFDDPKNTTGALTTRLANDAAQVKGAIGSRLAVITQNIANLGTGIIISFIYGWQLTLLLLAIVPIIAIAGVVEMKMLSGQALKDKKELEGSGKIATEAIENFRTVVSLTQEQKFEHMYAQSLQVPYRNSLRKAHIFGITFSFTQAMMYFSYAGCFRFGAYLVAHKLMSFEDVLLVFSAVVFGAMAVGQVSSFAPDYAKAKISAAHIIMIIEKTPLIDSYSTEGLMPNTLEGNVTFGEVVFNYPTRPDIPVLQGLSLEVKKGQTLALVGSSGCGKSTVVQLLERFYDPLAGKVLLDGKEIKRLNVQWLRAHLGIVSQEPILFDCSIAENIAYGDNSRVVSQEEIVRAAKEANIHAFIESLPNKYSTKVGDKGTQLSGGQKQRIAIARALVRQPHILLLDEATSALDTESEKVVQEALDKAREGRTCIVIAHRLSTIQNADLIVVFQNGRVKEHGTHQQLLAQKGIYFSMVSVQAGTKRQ

P-gp [6] = molecular target: T1, P-gp; assay: in vitro; conditions: Lucena 1 cells, probe doxorubicin (DOX) 5 μM

COc1cc([C@H]2OC[C@]3(OC(C)=O)[C@@H](c4ccc(O)c(OC)c4)OC[C@H]23)ccc1O [Compound 16, 1-acetoxy-(+)-pinoresinol]
Minimum effective concentration (MEC) in the reversal assay (potentiation of DOX toxicity from) (Lucena 1 cells; Lucena 1, DOX): 0.11 µM | RF Lucena 1 (Lucena 1 cells; compound at 0.11 μM, DOX): 1.4 | RF Lucena 1 (Lucena 1 cells; compound at 14 μM, DOX): 22.7 | Effectiveness of 16 relative to 14 according to the MECs (Lucena 1 cells; reversal and accumulation assays): 64 times | Effect on DOX activity in K562 (K562 cells [1]): no potentiation | RF K562 (K562 cells [1]; DOX): 1.05 ± 0.14 | DOX accumulation in K562 (K562 cells [2]): no increase in DOX accumulation | IC50 at 48 h [3]: 103 µM | IC50 [4]: 103 µM | Minimum effective concentration (MEC) in the DOX accumulation assay (P-gp [5]): 0.87 µM | activity at 0.87 µM (P-gp [6]): 62% | activity at 14 µM (P-gp [6]): 141%

— publication PMC5403950, “Mechanism Underlying the Reversal of Drug Resistance in P-Glycoprotein-Expressing Leukemia Cells by Pinoresinol and the Study of a Derivative” (Frontiers in Pharmacology, 2017)
